For one assay, the system named is thermostable PPDK. The note with it: cited from earlier work; for Specificity / Michaelis constants: thermostable PPDK; for Specificity: relative value in brackets, AMP = 100; for Michaelis constants: substrate named in brackets.
Assay [1] has as its system luciferase luminescence reaction with ATP produced using PPi. Kind of assay: Luminescence from DNA complementary strand synthesis at varying AMP concentrations (FIG. 7). The assay is classed as biochemical. Particulars: luminescence obtained by adding DNA. The text has this: FIG. 7 is a graph showing the relationship between AMP concentrations and signal intensity variations obtained in luciferase luminescence reaction with ATP produced using PPi obtained in DNA complementary strand synthesis. The horizontal axis of the graph indicates AMP concentrations in the reaction solution;
The luminescence obtained by adding DNA (light emitted by PPi obtained in DNA complementary strand synthesis) is generated only in the presence of AMP. […] AMP concentrations giving sufficient luminescence intensity are within the range of 30 to 600 μM. As is obvious, the use of AMP within this concentration range enables sequencing with 0.1 pmol DNA sample.

A further assay has as its target ATP sulfurylase (Saccharomyces cerevisiae, UniProt P08536). The note with it: read-out: Michaelis constant of reaction for forming the complexes of APS and the enzyme (Km), has been reported; cited from earlier work.
In assay [2] the target is T1, luciferase (Photinus pyralis, UniProt P08659). Description: APS as substrate for luminescent reaction catalyzed by luciferase. In kind it is biochemical. Particulars: 5 μM APS, reaction solution 100 μl. The protocol:
Pyrosequencing detects chemiluminescence derived from ATP produced from the reaction of PPi produced in DNA complementary strand synthesis with APS in the presence of ATP sulfurylase. […] For example, APS, though having approximately 1/1000 of reaction efficiency of ATP, reacts as a substrate with luciferase to emit light. To efficiently convert PPi produced in complementary strand synthesis to ATP, approximately 5 μM APS must usually be added to the reaction solution. When the volume of the reaction solution is set to 100 μl, 5 μM APS generates luminescence corresponding to approximately 500 fmol ATP. Thus, DNA sequencing with high precision by pyrosequencing must employ a DNA sample of a picomole level and large amounts of reagents commensurate therewith.
When sequencing is performed with 0.1 pmol DNA sample, which is 1/10 of the DNA sample amount (1 pmol) conventionally used, the amount of background light must be equal to or lower than the amount of chemiluminescence emitted by 0.01 pmol ATP. […] Under the conditions of pyrosequencing, the efficiency of the luminescence process with ATP as a substrate is reduced due to the coexistence of apyrase, an enzyme that degrades dNTP and ATP. […]

Assay [3] addresses T1, luciferase. Particulars: relative to ATP, cited from earlier work.
The next assay concerns thermostable luciferase. The note with it: substrate named in brackets; cited from earlier work.

A word on the Km: it is the concentration of substrate that gives half-maximal velocity.

T1 sequence (P08659 whole entry, species assumed): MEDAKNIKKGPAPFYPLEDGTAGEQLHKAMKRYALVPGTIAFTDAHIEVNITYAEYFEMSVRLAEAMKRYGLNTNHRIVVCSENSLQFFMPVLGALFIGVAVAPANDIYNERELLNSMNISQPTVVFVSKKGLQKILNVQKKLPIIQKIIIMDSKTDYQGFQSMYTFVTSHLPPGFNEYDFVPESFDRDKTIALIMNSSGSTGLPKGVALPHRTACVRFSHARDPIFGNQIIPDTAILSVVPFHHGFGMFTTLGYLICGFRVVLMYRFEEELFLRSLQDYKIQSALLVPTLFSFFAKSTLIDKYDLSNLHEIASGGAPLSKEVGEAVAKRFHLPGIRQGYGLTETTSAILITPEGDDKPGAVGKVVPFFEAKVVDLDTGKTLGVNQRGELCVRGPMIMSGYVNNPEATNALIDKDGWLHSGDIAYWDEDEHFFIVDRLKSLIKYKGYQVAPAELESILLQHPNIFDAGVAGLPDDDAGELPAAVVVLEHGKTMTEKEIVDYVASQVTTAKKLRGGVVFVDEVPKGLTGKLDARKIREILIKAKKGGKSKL
Sequence of ATP sulfurylase (P08536 whole entry, species assumed): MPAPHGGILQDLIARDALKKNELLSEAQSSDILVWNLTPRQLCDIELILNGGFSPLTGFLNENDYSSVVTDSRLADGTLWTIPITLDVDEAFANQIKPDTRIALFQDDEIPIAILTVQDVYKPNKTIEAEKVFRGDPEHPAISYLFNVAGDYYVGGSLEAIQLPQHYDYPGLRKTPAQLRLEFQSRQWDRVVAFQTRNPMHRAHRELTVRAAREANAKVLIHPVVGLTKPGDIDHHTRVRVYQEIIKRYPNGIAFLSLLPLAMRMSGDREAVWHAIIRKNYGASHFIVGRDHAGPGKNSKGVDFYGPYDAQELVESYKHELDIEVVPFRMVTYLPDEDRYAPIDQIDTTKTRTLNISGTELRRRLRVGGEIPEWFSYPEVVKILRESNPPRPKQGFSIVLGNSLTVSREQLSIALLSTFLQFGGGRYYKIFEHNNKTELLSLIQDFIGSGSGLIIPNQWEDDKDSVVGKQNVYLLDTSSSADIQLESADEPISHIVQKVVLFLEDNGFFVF

Turning to `Nc1nc2c(ncn2[C@@H]2O[C@H](COP(=O)(O)O)[C@@H](O)[C@H]2O)c(=O)[nH]1` [GMP], the Specificity result in the assay on thermostable PPDK is given as “CMP (0), GMP (0)”.

Take `Nc1ncnc2c1ncn2[C@@H]1O[C@H](COP(=O)(O)O)[C@@H](O)[C@H]1O` [AMP]: in the assay on thermostable PPDK (have been reported, read-out: Michaelis constants (Km) of PPDK and AMP), the Km was 5 µM. Moreover, in the assay on thermostable PPDK, the Specificity was 100 and the Michaelis constants was 501 µM. In assay [1], the “AMP concentration at luminescence peak” value is “around 100 μM”.

Consider `C=C(OP(=O)(O)O)C(=O)O` [phosphoenolpyruvate], for which the Michaelis constants in the assay on thermostable PPDK was 281 µM.

As to `Nc1ncnc2c1ncn2[C@@H]1O[C@H](COP(=O)(O)OS(=O)(=O)O)[C@@H](O)[C@H]1O` [APS, adenosine 5′-phosphosulfate], the Km at ATP sulfurylase is 0.56 µM. Besides, the “luminescence corresponding to ATP” value on luciferase [2] is reported as “approximately 500 fmol”. In addition, the “reaction efficiency of ATP (fraction) as luciferase substrate” value on luciferase [3] is recorded as “approximately 1/1000”. Further, the “activity to ATP as substrate for luminescent reaction catalyzed by luciferase” value at luciferase [3] (has been reported) was 0.6×10^−3.

On to `O=C(O)[C@H]1CSC(c2nc3ccc(O)cc3s2)=N1` [D-luciferin], for which the Michaelis constants in the assay with thermostable luciferase was 1.5104 M (D-luciferin).

Turning to `Nc1ncnc2c1ncn2[C@@H]1O[C@H](COP(=O)(O)OP(=O)(O)OP(=O)(O)O)[C@@H](O)[C@H]1O` [ATP], the Michaelis constants in the assay with thermostable PPDK is 201 µM.

`Cc1cn([C@H]2C[C@H](O)[C@@H](COP(=O)(O)O)O2)c(=O)[nH]c1=O` [TMP]: the Specificity in the assay with thermostable PPDK is 0.

Consider `Nc1ccn([C@@H]2O[C@H](COP(=O)(O)O)[C@@H](O)[C@H]2O)c(=O)n1` [CMP], for which, in the assay with thermostable PPDK, the Specificity result was “CMP (0), GMP (0)”.

As to `O=c1ccn([C@@H]2O[C@H](COP(=O)(O)O)[C@@H](O)[C@H]2O)c(=O)[nH]1` [UMP], in the assay with thermostable PPDK, the Specificity was 0.

For `O=P(O)(O)OP(=O)(O)O` [PPi, pyrophosphate], the Michaelis constants with thermostable PPDK is 381 µM.
